Laboratory results from patent US20250114396A1, “CHLORITE USES FOR STEM CELLS” (The Regents of the University of California, priority 2023, published 2025).
Read-outs that look alike come from different tables or passages of the source.

Legend:
CD 34+ HSCs = settings: LPS-activated HSC (10 ng/mL LPS overnight), single treatment with NP001 300 μM, grown 3 days, RNAseq
Method: CD 34+ HSCs were isolated from normal human adult bone marrow (>95% pure) and were either stimulated by 10 ng/mL LPS overnight or control medium. NP001 was added (300 μM; equivalent to phase 2 dose in humans) to washed HSC controls and LPS-activated HSC and the cells grown for 3 days in HSC medium. RNAseq with 100 M reads was performed on all cells and pathway analysis was performed.
By comparison with non-LPS-activated cells, LPS-activated pathways with p<10-15 were defined. […] NP001-treated, LPS-activated HSC gene expression pathways were evaluated in parallel. […] In addition, LPS-activated HSC were evaluated for factors (e.g., protein and genes), that were modulated following treatment with NP001.

patients with ALS = system: patients with ALS
Source text: Non-limiting examples of measures of clinical response include the ALS Functional Rating Scale Revised (ALSFRS-R) and respiratory vital capacity.
Stem cell reprogramming for long term disease regulation is evidenced by finding normalization of biomarkers for at least one month after the last dose in the 6-month administration procedure.
A major subset of ALS patients show evidence for ongoing inflammation that potentially contributes to disease progression.

[1] = ALS patients with plasma CRP levels >1.13 mg/L
[2] = clinical responders, 6-month pulse therapy, at least one month after last dose
[3] = mechanism of action studies in patients with ALS

In the case of sodium chlorite [NP001], the “HSC gene expression pathways stimulated by LPS” value (CD 34+ HSCs) is reported as “reversed”, the disease progression (patients with ALS; [1]) is reported as “slowing disease progression” and the innate immune function (patients with ALS; [1]) is reported as “restore innate immune function”. The “plasma epidermal growth factor (EGF), long term change” value (patients with ALS; [2]) was “upregulation”, the “plasma hepatocyte growth factor (HGF), long term change” value (patients with ALS; [2]) was “downregulation” and the “plasma interleukin-10 (IL-10), long term change” value (patients with ALS; [2]) was “upregulation”. The “plasma interleukin-18 (IL-18), long term change” value (patients with ALS; [2]) was “downregulation”, the “plasma lipopolysaccharide (LPS), long term change” value (patients with ALS; [2]) was “downregulation” and the “plasma lipopolysaccharide binding protein (LBP), long term change” value (patients with ALS; [2]) was “downregulation”. For the same substance, the “plasma neopterin, long term change” value (patients with ALS; [2]) was “upregulation”, the “plasma soluble CD163 (sCD163), long term change” value (patients with ALS; [2]) was “downregulation” and the “8 biomarkers associated with microbial translocation” value (patients with ALS; intermittent dosing (3 days/month), patients whose disease slowed) was “prolonged regulation”. For the same substance, the disease progression (patients with ALS; [3]) was “slowing disease progression” and the innate immune function (patients with ALS; [3]) was “restore innate immune function”.
